Measurements reported in patent US6479435B1, “Diaryl ethers and processes for their preparation and herbicidal and desiccant compositions containing them” (ISK Americas Incorporated, priority 1997, dated 2002).

Key:
Format in all cases: in vivo
[1] = test system: Johnsongrass (Sorghum halepense, SORHA); test: Pre-emerge greenhouse herbicide test, phytotoxicity rating; details: 14 days after application, rating scale 0-100
In short: (§1)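 Visual 0–100 injury rating (100 = all plants dead) taken 14 days after treatment. Rates of 125–1000 g ai/ha in acetone, 187 l/ha, were sprayed onto soil one day post-sowing; pots were surface-watered to incorporate, then bottom-watered.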

[2] = test system: barnyardgrass (Echinochloa crusgalli, ECHCG); test: as above; details: 14 days after application, rating scale 0-100
In short: as §1

[3] = test system: common ragweed (Ambrosia artemisiifolia L., AMBEL); test: as above; details: 14 days after application, rating scale 0-100
In short: as §1

[4] = test system: green foxtail (Setaria viridis, SETVI); test: as above; details: 14 days after application, rating scale 0-100
In short: as §1

[5] = test system: ivyleaf morningglory (Ipomoea hederacea, IPOHE); test: as above; details: 14 days after application, rating scale 0-100
In short: as §1

[6] = test system: lambsquarters (Chenopodium album, CHEAL); test: as above; details: 14 days after application, rating scale 0-100
In short: as §1

[7] = test system: large crabgrass (Digitaria sanguinalis, DIGSA); test: as above; details: 14 days after application, rating scale 0-100
In short: as §1

[8] = test system: redroot pigweed (Amaranthus retroflexus, AMARE); test: as above; details: 14 days after application, rating scale 0-100
In short: as §1

[9] = test system: sicklepod (Cassia obtusifolia, CASOB); test: as above; details: 14 days after application, rating scale 0-100
In short: as §1

[10] = test system: velvetleaf (Abutilon theophrasti, ABUTH); test: as above; details: 14 days after application, rating scale 0-100
In short: as §1

[11] = test system: field corn (Zea mays L., var. Dekalb 535, CORN); test: Pre-emerge greenhouse test, crop damage rating; details: 14 days after application, rating scale 0-100
In short: as §1

[12] = test system: upland rice (Oryza sp., var.Tebonnet, RICE); test: Pre-emerge greenhouse test, crop damage rating; details: 14 days after application, rating scale 0-100
In short: as §1

[13] = test system: soybean (Glycine max L., var. Pella 86, SOY); test: Pre-emerge greenhouse test, crop damage rating; details: 14 days after application, rating scale 0-100
In short: as §1

[14] = test system: common ragweed (Ambrosia artemisiifolia L., AMBEL); test: Post-emerge greenhouse herbicide test, phytotoxicity rating; details: 14 days after application
In short: (§2)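 Scores use a 0 (no damage) to 100 (complete kill) scale, taken 14 days after a foliar spray. Acetone solutions with 0.25% v/v non-ionic surfactant were applied by track sprayer at 187 l/ha and 63-1000 g ai/ha to bottom-watered 2-3 leaf plants.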

[15] = test system: Johnsongrass (Sorghum halepense, SORHA); test: as above; details: 14 days after application
In short: as §2

[16] = test system: barnyardgrass (Echinochloa crusgalli, ECHCG); test: as above; details: 14 days after application
In short: as §2

[17] = test system: green foxtail (Setaria viridis, SETVI); test: as above; details: 14 days after application
In short: as §2

[18] = test system: ivyleaf morningglory (Ipomoea hederacea, IPOHE); test: as above; details: 14 days after application
In short: as §2

[19] = test system: lambsquarters (Chenopodium album, CHEAL); test: as above; details: 14 days after application
In short: as §2

[20] = test system: large crabgrass (Digitaria sanguinalis, DIGSA); test: as above; details: 14 days after application
In short: as §2

[21] = test system: redroot pigweed (Amaranthus retroflexus, AMARE); test: as above; details: 14 days after application
In short: as §2

[22] = test system: sicklepod (Cassia obtusifolia, CASOB); test: as above; details: 14 days after application
In short: as §2

[23] = test system: velvetleaf (Abutilon theophrasti, ABUTH); test: as above; details: 14 days after application
In short: as §2

[24] = test system: field corn (Zea mays L., var. Dekalb 535, CORN); test: Post-emerge greenhouse test, crop damage rating; details: 14 days after application
In short: as §2

[25] = test system: upland rice (Oryza sp., var.Tebonnet, RICE); test: Post-emerge greenhouse test, crop damage rating; details: 14 days after application
In short: as §2

[26] = test system: soybean (Glycine max L., var. Pella 86, SOY); test: Post-emerge greenhouse test, crop damage rating; details: 14 days after application
In short: as §2

O=c1n(CCCF)nnn1-c1cc(Oc2ccc(C(F)(F)F)cn2)c(Cl)cc1Cl [Compound 6-9]
0: phytotoxicity rating SORHA ([1]; 125 g ai/ha) | phytotoxicity rating SORHA ([1]; 500 g ai/ha) | phytotoxicity rating ECHCG ([2]; 125 g ai/ha) | phytotoxicity rating ECHCG ([2]; 500 g ai/ha) | phytotoxicity rating AMBEL ([3]; 125 g ai/ha) | phytotoxicity rating AMBEL ([3]; 500 g ai/ha) | phytotoxicity rating SETVI ([4]; 125 g ai/ha) | phytotoxicity rating SETVI ([4]; 500 g ai/ha) | phytotoxicity rating IPOHE ([5]; 125 g ai/ha) | phytotoxicity rating IPOHE ([5]; 500 g ai/ha) | phytotoxicity rating CHEAL ([6]; 125 g ai/ha) | phytotoxicity rating CHEAL ([6]; 500 g ai/ha) | phytotoxicity rating DIGSA ([7]; 125 g ai/ha) | phytotoxicity rating DIGSA ([7]; 500 g ai/ha) | phytotoxicity rating AMARE ([8]; 125 g ai/ha) | phytotoxicity rating AMARE ([8]; 500 g ai/ha) | phytotoxicity rating CASOB ([9]; 125 g ai/ha) | phytotoxicity rating CASOB ([9]; 500 g ai/ha) | phytotoxicity rating ABUTH ([10]; 125 g ai/ha) | phytotoxicity rating ABUTH ([10]; 500 g ai/ha) | crop damage rating CORN ([11]; 125 g ai/ha) | crop damage rating CORN ([11]; 500 g ai/ha) | crop damage rating RICE ([12]; 125 g ai/ha) | crop damage rating RICE ([12]; 500 g ai/ha) | crop damage rating SOY ([13]; 125 g ai/ha) | crop damage rating SOY ([13]; 500 g ai/ha) | AMBEL phytotoxicity rating (0-100) ([14]; 63 g al/ha) | AMBEL phytotoxicity rating (0-100) ([14]; 250 g al/ha) | SORHA phytotoxicity rating (0-100) ([15]; 63 g al/ha) | SORHA phytotoxicity rating (0-100) ([15]; 250 g al/ha) | ECHCG phytotoxicity rating (0-100) ([16]; 63 g al/ha) | ECHCG phytotoxicity rating (0-100) ([16]; 250 g al/ha) | SETVI phytotoxicity rating (0-100) ([17]; 63 g al/ha) | SETVI phytotoxicity rating (0-100) ([17]; 250 g al/ha) | IPOHE phytotoxicity rating (0-100) ([18]; 63 g al/ha) | IPOHE phytotoxicity rating (0-100) ([18]; 250 g al/ha) | CHEAL phytotoxicity rating (0-100) ([19]; 63 g al/ha) | CHEAL phytotoxicity rating (0-100) ([19]; 250 g al/ha) | DIGSA phytotoxicity rating (0-100) ([20]; 63 g al/ha) | DIGSA phytotoxicity rating (0-100) ([20]; 250 g al/ha) | AMARE phytotoxicity rating (0-100) ([21]; 63 g al/ha) | AMARE phytotoxicity rating (0-100) ([21]; 250 g al/ha) | CASOB phytotoxicity rating (0-100) ([22]; 63 g al/ha) | CASOB phytotoxicity rating (0-100) ([22]; 250 g al/ha) | ABUTH phytotoxicity rating (0-100) ([23]; 63 g al/ha) | ABUTH phytotoxicity rating (0-100) ([23]; 250 g al/ha) | CORN crop damage rating (0-100) ([24]; 63 g al/ha) | CORN crop damage rating (0-100) ([24]; 250 g al/ha) | RICE crop damage rating (0-100) ([25]; 63 g al/ha) | RICE crop damage rating (0-100) ([25]; 250 g al/ha) | SOY crop damage rating (0-100) ([26]; 63 g al/ha) | SOY crop damage rating (0-100) ([26]; 250 g al/ha)
